# PubChem BioAssay (NCI)
#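 Exposure lasted 48 hours, with cells grown in 96-well plates and compounds tested at five concentrations. TGI denotes the concentration required for complete inhibition of growth.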
# Columns and labels:
# Test in all cases: NCI anticancer screen, dose series, 48 h
# OVCAR-8 ovarian = test system: OVCAR-8 ovarian
# TK-10 renal = test system: TK-10 renal
# SNB-75 CNS = test system: SNB-75 CNS
# OVCAR-3 ovarian = test system: OVCAR-3 ovarian
# UACC-257 melanoma = test system: UACC-257 melanoma
# HCT-116 colon = test system: HCT-116 colon
# T-47D breast = test system: T-47D breast
# DU-145 prostate = test system: DU-145 prostate
# SR leukemia = test system: SR leukemia
compound,measurement,setting,value
CC1CN=C(c2ccc(CN3CCC(CCCC4CCN(Cc5ccc(C6=NCC(C)N6)cc5)CC4)CC3)cc2)N1 (configuration not stated),TGI,OVCAR-8 ovarian,> 100 µM
same,TGI,TK-10 renal,> 100 µM
same,TGI,SNB-75 CNS,87.6 µM
same,TGI,OVCAR-3 ovarian,> 100 µM
same,TGI,UACC-257 melanoma,45.9 µM
same,TGI,HCT-116 colon,> 100 µM
same,TGI,T-47D breast,> 100 µM
same,TGI,DU-145 prostate,> 100 µM
CNC(=O)C1OC(n2cnc3c(NCc4cccc(I)c4)nc(Cl)nc32)C(O)C1O (configuration not stated),TGI,OVCAR-8 ovarian,26.7 µM
same,TGI,TK-10 renal,29.8 µM
same,TGI,SNB-75 CNS,16.5 µM
same,TGI,OVCAR-3 ovarian,25.7 µM
same,TGI,UACC-257 melanoma,23.8 µM
same,TGI,HCT-116 colon,41.7 µM
same,TGI,T-47D breast,61.8 µM
same,TGI,DU-145 prostate,50.4 µM
same,TGI,SR leukemia,59.6 µM
CC(C)N1[C@@H]2CCCC[C@H]2N(C(C)C)[P+]1=O,TGI,OVCAR-8 ovarian,> 100 µM
same,TGI,TK-10 renal,> 100 µM
same,TGI,SNB-75 CNS,> 100 µM
same,TGI,OVCAR-3 ovarian,> 100 µM
same,TGI,UACC-257 melanoma,> 100 µM
same,TGI,HCT-116 colon,> 100 µM
same,TGI,T-47D breast,> 100 µM
same,TGI,DU-145 prostate,> 100 µM
same,TGI,SR leukemia,> 100 µM
Cc1ccc(C)c2c1n1c(=O)n(C)c(=O)n21,TGI,OVCAR-8 ovarian,> 100 µM
same,TGI,TK-10 renal,> 100 µM
same,TGI,SNB-75 CNS,> 100 µM
same,TGI,OVCAR-3 ovarian,> 100 µM
same,TGI,UACC-257 melanoma,> 100 µM
same,TGI,HCT-116 colon,> 100 µM
same,TGI,T-47D breast,> 100 µM
same,TGI,DU-145 prostate,> 100 µM
Cc1cc(OCc2nnc3n2N=C(c2cc(F)c(Cl)cc2Cl)/C(=C/c2ccc(-c4ccc(Cl)cc4)o2)S3)ccc1Cl,TGI,OVCAR-8 ovarian,> 50 µM
same,TGI,TK-10 renal,> 50 µM
same,TGI,OVCAR-3 ovarian,> 50 µM
same,TGI,UACC-257 melanoma,> 50 µM
same,TGI,HCT-116 colon,> 50 µM
same,TGI,T-47D breast,> 50 µM
same,TGI,DU-145 prostate,> 50 µM
same,TGI,SR leukemia,> 50 µM
O=c1[nH]c2ccc(C(F)(F)F)cc2nc1C(F)(F)F,TGI,OVCAR-8 ovarian,77 µM
same,TGI,TK-10 renal,> 100 µM
same,TGI,SNB-75 CNS,48 µM
same,TGI,OVCAR-3 ovarian,41.8 µM
same,TGI,UACC-257 melanoma,64.4 µM
same,TGI,HCT-116 colon,60.7 µM
same,TGI,T-47D breast,45.9 µM
same,TGI,DU-145 prostate,> 100 µM
same,TGI,SR leukemia,> 100 µM
Cc1ccc2c(c1)Nc1ccccc1P2(=O)O,TGI,OVCAR-8 ovarian,> 100 µM
same,TGI,TK-10 renal,> 100 µM
same,TGI,SNB-75 CNS,97.7 µM
same,TGI,OVCAR-3 ovarian,> 100 µM
same,TGI,UACC-257 melanoma,> 100 µM
same,TGI,HCT-116 colon,> 100 µM
same,TGI,T-47D breast,> 100 µM
same,TGI,DU-145 prostate,> 100 µM
same,TGI,SR leukemia,> 100 µM
NS(=O)(=O)c1ccc(NCc2nc3ccccc3[nH]2)cc1,TGI,OVCAR-8 ovarian,> 100 µM
same,TGI,TK-10 renal,> 100 µM
same,TGI,SNB-75 CNS,> 100 µM
same,TGI,OVCAR-3 ovarian,> 100 µM
same,TGI,UACC-257 melanoma,> 100 µM
same,TGI,HCT-116 colon,> 100 µM
same,TGI,T-47D breast,> 100 µM
same,TGI,DU-145 prostate,> 100 µM
CCOC(=O)CCC(NC(=O)c1ccc(Nc2nc3ccccc3nc2C(=O)OCC)s1)C(=O)OCC (configuration not stated),TGI,OVCAR-8 ovarian,> 100 µM
same,TGI,TK-10 renal,> 100 µM
same,TGI,SNB-75 CNS,> 100 µM
same,TGI,OVCAR-3 ovarian,> 100 µM
same,TGI,UACC-257 melanoma,> 100 µM
same,TGI,HCT-116 colon,> 100 µM
same,TGI,T-47D breast,> 100 µM
same,TGI,DU-145 prostate,> 100 µM
same,TGI,SR leukemia,> 100 µM
CC(C)(C)OC(=O)NNCC(O)COc1ccccc1 (configuration not stated),TGI,OVCAR-8 ovarian,> 100 µM
same,TGI,TK-10 renal,> 100 µM
same,TGI,OVCAR-3 ovarian,> 100 µM
same,TGI,UACC-257 melanoma,> 100 µM
same,TGI,HCT-116 colon,> 100 µM
same,TGI,T-47D breast,> 100 µM
same,TGI,DU-145 prostate,> 100 µM
same,TGI,SR leukemia,> 100 µM
NNS(=O)(=O)c1ccc(/C=C2\NC(=O)NC2=O)cc1,TGI,OVCAR-8 ovarian,> 100 µM
same,TGI,TK-10 renal,> 100 µM
same,TGI,SNB-75 CNS,> 100 µM
same,TGI,OVCAR-3 ovarian,> 100 µM
same,TGI,UACC-257 melanoma,> 100 µM
same,TGI,HCT-116 colon,> 100 µM
same,TGI,T-47D breast,> 100 µM
same,TGI,DU-145 prostate,> 100 µM
CCOC(=O)CN1C(=O)C(=O)N(c2ccc(OC)c3ccccc23)C1=O,TGI,OVCAR-8 ovarian,> 100 µM
same,TGI,TK-10 renal,> 100 µM
same,TGI,SNB-75 CNS,> 100 µM
same,TGI,OVCAR-3 ovarian,> 100 µM
same,TGI,UACC-257 melanoma,> 100 µM
same,TGI,HCT-116 colon,> 100 µM
same,TGI,T-47D breast,> 100 µM
same,TGI,DU-145 prostate,> 100 µM
same,TGI,SR leukemia,> 100 µM
CC1=NN(c2nc(N)nc(-c3cc4ccccc4oc3=N)n2)C(C)(C)C1,TGI,OVCAR-8 ovarian,53 µM
same,TGI,TK-10 renal,38.4 µM
same,TGI,OVCAR-3 ovarian,31.6 µM
same,TGI,UACC-257 melanoma,31.4 µM
same,TGI,HCT-116 colon,35.5 µM
same,TGI,T-47D breast,34.3 µM
same,TGI,DU-145 prostate,53.7 µM
same,TGI,SR leukemia,46.8 µM
c1ccc(OCc2nnc(CCCCCCCCc3nnc(COc4ccccc4)o3)o2)cc1,TGI,OVCAR-8 ovarian,> 100 µM
same,TGI,TK-10 renal,> 100 µM
same,TGI,SNB-75 CNS,83.4 µM
same,TGI,OVCAR-3 ovarian,> 100 µM
same,TGI,UACC-257 melanoma,> 100 µM
same,TGI,HCT-116 colon,> 100 µM
same,TGI,DU-145 prostate,> 100 µM
Cc1ccc2c(=O)cc(-c3cccc(F)c3)[nH]c2n1,TGI,OVCAR-8 ovarian,1.87 µM
same,TGI,TK-10 renal,> 100 µM
same,TGI,OVCAR-3 ovarian,0.0415 µM
same,TGI,UACC-257 melanoma,> 100 µM
same,TGI,DU-145 prostate,1.23 µM
CCN(CCC#N)C(=O)Nc1ccccc1,TGI,OVCAR-8 ovarian,> 100 µM
same,TGI,TK-10 renal,> 100 µM
same,TGI,SNB-75 CNS,> 100 µM
same,TGI,OVCAR-3 ovarian,> 100 µM
same,TGI,UACC-257 melanoma,> 100 µM
same,TGI,HCT-116 colon,> 100 µM
same,TGI,T-47D breast,> 100 µM
same,TGI,DU-145 prostate,> 100 µM
CN1C/C(=C\c2cccs2)C(=O)/C(=C/c2cccs2)C1,TGI,OVCAR-8 ovarian,74 µM
same,TGI,TK-10 renal,> 100 µM
same,TGI,OVCAR-3 ovarian,> 100 µM
same,TGI,UACC-257 melanoma,> 100 µM
same,TGI,HCT-116 colon,34.4 µM
same,TGI,T-47D breast,92.6 µM
same,TGI,DU-145 prostate,> 100 µM
C=C(Cl)CN1c2ccccc2C=Cc2ccccc21,TGI,OVCAR-8 ovarian,> 100 µM
same,TGI,TK-10 renal,> 100 µM
same,TGI,SNB-75 CNS,61.9 µM
same,TGI,OVCAR-3 ovarian,33.9 µM
same,TGI,UACC-257 melanoma,49.8 µM
same,TGI,HCT-116 colon,29 µM
same,TGI,T-47D breast,65.2 µM
same,TGI,DU-145 prostate,> 100 µM
Cc1ccc(C(=O)N/N=C(\N=Nc2ccccc2C(=O)O)c2ccc(N(C)C)cc2)cc1,TGI,OVCAR-8 ovarian,> 100 µM
same,TGI,TK-10 renal,> 100 µM
same,TGI,OVCAR-3 ovarian,99.3 µM
same,TGI,UACC-257 melanoma,> 100 µM
same,TGI,HCT-116 colon,> 100 µM
COC(=N)CCCl,TGI,OVCAR-8 ovarian,> 100 µM
same,TGI,TK-10 renal,> 100 µM
same,TGI,SNB-75 CNS,> 100 µM
same,TGI,OVCAR-3 ovarian,> 100 µM
same,TGI,UACC-257 melanoma,> 100 µM
same,TGI,HCT-116 colon,> 100 µM
same,TGI,DU-145 prostate,> 100 µM
same,TGI,SR leukemia,> 100 µM
CCOC(=O)C1=C(C)N(Cc2ccccc2)C2(O)C(OC)CC(=O)C3C(=O)N(c4ccccc4)C(=O)C132 (configuration not stated),TGI,OVCAR-8 ovarian,31.9 µM
same,TGI,TK-10 renal,53 µM
same,TGI,OVCAR-3 ovarian,> 100 µM
same,TGI,UACC-257 melanoma,37.7 µM
same,TGI,HCT-116 colon,> 100 µM
same,TGI,T-47D breast,30.5 µM
same,TGI,DU-145 prostate,15.1 µM
same,TGI,SR leukemia,86.8 µM
Cc1ccsc1/C=N/Nc1cc(C)c2ccccc2n1,TGI,OVCAR-8 ovarian,32.7 µM
same,TGI,TK-10 renal,31.9 µM
same,TGI,SNB-75 CNS,31.4 µM
same,TGI,OVCAR-3 ovarian,26.6 µM
same,TGI,UACC-257 melanoma,21 µM
same,TGI,HCT-116 colon,28.7 µM
same,TGI,T-47D breast,> 100 µM
same,TGI,DU-145 prostate,32 µM
CCCCCCCCCCOc1ccc(N=Nc2nnc(-c3ccc(OCCCCC)cc3)s2)cc1,TGI,OVCAR-8 ovarian,> 100 µM
same,TGI,TK-10 renal,> 100 µM
same,TGI,OVCAR-3 ovarian,> 100 µM
same,TGI,UACC-257 melanoma,> 100 µM
same,TGI,HCT-116 colon,> 100 µM
same,TGI,T-47D breast,> 100 µM
same,TGI,DU-145 prostate,> 100 µM
O=c1onc(Nc2ccccc2)n1-c1ccccc1,TGI,OVCAR-8 ovarian,> 100 µM
same,TGI,TK-10 renal,> 100 µM
same,TGI,SNB-75 CNS,> 100 µM
same,TGI,OVCAR-3 ovarian,> 100 µM
same,TGI,UACC-257 melanoma,> 100 µM
same,TGI,HCT-116 colon,> 100 µM
same,TGI,SR leukemia,> 100 µM
COc1cc(-c2nc(SC)nc3c2CCc2ccccc2-3)cc(OC)c1OC,TGI,OVCAR-8 ovarian,> 100 µM
same,TGI,SNB-75 CNS,> 100 µM
same,TGI,OVCAR-3 ovarian,> 100 µM
same,TGI,UACC-257 melanoma,> 100 µM
same,TGI,HCT-116 colon,> 100 µM
same,TGI,T-47D breast,> 100 µM
same,TGI,DU-145 prostate,> 100 µM
COc1ccc(C2=Nc3c(nc(SC)[nH]c3=O)NC(c3ccccc3)C2)cc1 (configuration not stated),TGI,OVCAR-8 ovarian,40.7 µM
same,TGI,SNB-75 CNS,48.8 µM
same,TGI,OVCAR-3 ovarian,> 100 µM
same,TGI,UACC-257 melanoma,57.4 µM
same,TGI,HCT-116 colon,> 100 µM
same,TGI,DU-145 prostate,82.7 µM
same,TGI,SR leukemia,> 100 µM
